Test results reported in US20080004320A1, “Remedy for Glomerular Disease” (Kowa Co., Ltd., priority 2004, published 2008).
Structures can show the parent of a compound that is named as a salt.

System: ⅚ nephrectomized rats
Assay: Effect on ⅚ nephrectomized rat (progressive renal failure model)
Format: in vivo
Details: for death due to renal failure, compared with control group (FIG. 1): until week 15 after initiation of drug administration; for glomerulosclerosis score compared with control group (in words) / Glomerulosclerosis (score): week 15 after initiation of drug administration; for Glomerulosclerosis (score): average score of 50 glomeruli per renal tissue piece, male SD rats
Description: Fifty-one male SD rats (seven weeks old, purchased from Japan SLC, Inc.) were anesthetized with pentobarbital, and the left kidney of each rat was exposed. Under a stereoscopic microscope, two of the left renal artery branches (generally, one renal artery is separated into three branches) were ligated and one central branch was left intact. When a renal artery branch is ligated, a portion controlled by the branch falls into ischemia, and such an ischemic renal portion can be visually detected. One week later, the right kidney was removed. That is to say, ⅚ of the kidneys was removed. Four weeks after surgery, blood was collected from each rat under unanesthetized conditions, and plasma creatinine level (Pcr) was measured. Pcr is a blood parameter indicative of renal function, and an increase in Pcr indicates impairment of renal function. After Pcr measurement, rats with considerably impaired renal function and rats with no impairment of renal function were eliminated, to thereby select 36 rats employed for the test.
Subsequently, on the basis of the thus-obtained Pcr data, these rats were divided into four groups in such a manner that the value of Pcr was averaged out among each group: control group (i.e., no drug administration group) (N=9); pyridoxamine dihydrochloride administration group (administered in the form of aqueous solution (1.5 g/L)) (N=9); candesartan cilexetil administration group ((1 mg/kg) administered orally once a day) (N=9); and combined administration group (pyridoxamine dihydrochloride administered in the form of aqueous solution (1.5 g/L), and candesartan cilexetil (1 mg/kg) administered orally once a day) (N=9). In addition to these four groups, one normal rat group non-surgical group, was provided.
Pyridoxamine dihydrochloride was dissolved in purified water, and the aqueous solution was available to the rats ad libitum. The daily dose of pyridoxamine dihydrochloride was about 100 mg/kg Candesartan cilexetil was suspended in 0.5% methyl cellulose sodium solution upon use, and the suspension was repeatedly orally administered.
Drug administration was initiated at week five after surgery (Pcr was about 1.5 mg/dL at the start of drug administration; i.e., renal function had already been impaired).
After initiation of drug administration, the number of surviving rats was recorded every day. Per was measured at week two, week four, week seven, week 11, and week 15 after initiation of drug administration. Urinary total protein excretion was measured at week four, week seven, week 11 and week 15 after initiation of drug administration (each measurement was performed after 18-hour urine accumulation). In addition, at week 15 after initiation of drug administration, systolic blood pressure was measured under unanesthetized conditions by means of a noninvasive blood pressure measuring apparatus.
At week 15 after initiation of drug administration, the renal tissue of each rat was observed, and the degree of glomerulosclerosis was evaluated on the basis of the below-described score. […] As used herein, the term “score” refers to the degree of glomerulosclerosis; i.e., the degree of hyperplasia of mesangial matrix in glomeruli. […] Score 0 was assigned to a glomerulus similar to that of rats in the normal rat group; score 1 was assigned to a glomerulus in which the area of mesangial matrix accounts for less than 25%; score 2 was assigned to a glomerulus in which the area of mesangial matrix accounts for 25% or more and less than 50%; score 3 was assigned to a glomerulus in which the area of mesangial matrix accounts for 50% or more and less than […]; and score 4 was assigned to a glomerulus in which the area of mesangial matrix accounts for 75% or more. The average of the thus-obtained scores of the glomeruli was employed for evaluation of glomerulosclerosis.

CCOc1nc2cccc(C(=O)OC(C)OC(=O)OC3CCCCC3)c2n1Cc1ccc(-c2ccccc2-c2nnn[nH]2)cc1 (stereo not drawn) [Candesartan cilexetil, 1-(cyclohexyloxycarbonyloxy)ethyl 2-ethoxy-1-[2′-(1H-tetrazol-5-yl)biphenyl-4-ylmethyl]-1H-benzimidazole-7-carboxylate]
death due to renal failure, compared with control group (FIG. 1): tendency for suppression of death due to renal failure was observed
glomerulosclerosis score compared with control group (in words): reduction in score was observed
Glomerulosclerosis (score): 1.52 ± 0.45 score

Cc1ncc(CO)c(CN)c1O [Pyridoxamine dihydrochloride, 4-(aminomethyl)-5-hydroxy-6-methyl-3-pyridinemethanol]
death due to renal failure, compared with control group (FIG. 1): tendency for suppression of death due to renal failure was observed
glomerulosclerosis score compared with control group (in words): no reduction in score was observed
Glomerulosclerosis (score): 1.93 ± 0.35 score
